Data: patent publication US10350302B2, “Thymidine kinase diagnostic assay for gene therapy applications” (GenVivo, Inc., priority 2013, dated 2019)

Columns and labels:
mammalian TK enzymes = details: cited from earlier work
HSV-TK enzyme = details: cited from earlier work
[1] = [18F]FHBG whole body biodistribution by PET (FIG. 2); format: in vivo, human
From the text: FIG. 2 is whole body coronal images of [^18F]FHBG biodistribution in a healthy human subject at four distinct time periods after 4.53 mCi i.v. injection of the [^18F]FHBG.
In some embodiments, the clearance pattern in a subject determines the length of time delay for measuring background and determining, for example, [^18F]FHBG imaging activity. […] Accordingly, depending upon the organ and subject individual, some time may be required for background levels to decrease in order to measure HSV-TK gene expression. […] In these organ systems, a sufficient threshold for gene therapy suitability may be, for example, at least above 1.0 SUV, at least above 1.5 SUV, at least above 2.0 SUV, at least above 2.5 SUV, at least above 3.0 SUV, at least above 3.5 SUV or at least above 4.0 SUV.
In contrast, some delay may be needed in order to image signals above background levels in, for example, the liver and kidneys. See Yaghoubi et al. Nat. Protocols at vol. 1, p. 3073. Because of the background signals in these organ systems, a sufficient threshold for determination of suitability for gene therapy treatment may be, for example, at least 10% above background, at least 15% above background, at least 20% above background, at least 25% above background, at least 30% above background, at least 35% above background, at least 40% above background, at least 45% above background, at least 50% above background, at least 55% above background, at least 60% above background, at least 65% above background, at least 70% above background, at least 75% above background, at least 80% above background, at least 85% above background, at least 90% above background, at least 95% above background or at least 100% or more above background when measured after a predetermined amount of time. […] Accordingly, [^18F]FHBG signal measurements in the liver should not be taken until after [^18F]FHBG signal levels have decreased to background, approximately 1 to 1½ hours, depending upon clearance rate in each individual subject.

[2] = system: cells containing HSV-TK-m2; details: published observations; cited from earlier work
cancer cells = assay: GCV mediated cancer cell kill assay after retroviral transduction; format: cell-based; details: following retroviral transduction delivery
From the text: […]

[3] = healthy human subject, 45.3 minutes to 80.3 minutes
[4] = healthy human subject, 83.3 minutes to 155.6 minutes

Nc1nc2c(ncn2CCC(CO)C[18F])c(=O)[nH]1 (stereo not drawn) [[^18F]FHBG, 9-[4-[^18F]Fluoro-3-(hydroxymethyl)butyl]guanine]
affinity for mammalian TK enzymes (mammalian TK enzymes): relative low affinity | affinity as substrate for HSV-TK enzyme (HSV-TK enzyme): high affinity substrate | background [18F]FHBG signal in the heart and lungs ([1]; healthy human subject, 4.53 mCi i.v., after administration): virtually no background | [18F]FHBG levels in the liver, kidneys and bladder ([1]; healthy human subject, 4.53 mCi i.v., between 7.6 and 42.6 minutes after administration): high | [18F]FHBG levels in the liver and kidneys [1, 3]: decreased significantly | [18F]FHBG signal in the bladder [1, 3]: persistent high signal | [18F]FHBG levels in the liver and kidneys [1, 4]: decreased even further | [18F]FHBG signal in the bladder [1, 4]: maintenance of high signal levels | [18F]FHBG background in most tissues outside the lower abdomen ([1]; humans): rapidly decreases

Nc1nc(O)c2ncn(COC(CO)CO)c2n1 [ganciclovir]
duration of ganciclovir sufficient to kill the majority of cells containing HSV-TK-m2 [2]: 5 days

B1: SEQ ID NO: 18: optimized HSV-TK polynucleotide: A168H, nuclear export sequence, double mutated NLS, codon optimized, splice corrected (nucleic acid)
DNA: GTCAGCGGCCGCACCGGTACGCGTCCACCATGGCCCTGCAGAAAAAGCTGGAAGAGCTGGAACTGGATGGCAGCTACCCCGGCCACCAGCACGCCAGCGCCTTCGACCAGGCCGCCCGCAGCCGCGGCCACAGCAACGGCAGCACCGCACTGCGGCCAGGATCTCAGCAGGAGGCCACCGAGGTGCGCCCCGAGCAGAAGATGCCCACCCTGCTGCGCGTGTACATCGACGGACCACACGGCATGGGCAAGACCACCACCACCCAGCTGCTGGTGGCCCTGGGCAGCCGCGACGACATCGTGTACGTGCCCGAGCCCATGACCTACTGGCGCGTGCTGGGCGCCAGCGAGACCATCGCCAACATCTACACCACCCAGCACCGCCTGGACCAAGGCGAGATCAGCGCCGGCGACGCCGCCGTGGTGATGACCAGCGCCCAGATTACAATGGGCATGCCCTACGCCGTGACCGACGCCGTGCTGGCACCACACATCGGCGGCGAGGCCGGCAGCAGCCACGCACCACCACCAGCACTGACCCTGATCTTCGACCGGCACCCAATCGCACACCTGCTGTGCTACCCGGCAGCACGCTACCTGATGGGCTCCATGACACCACAAGCCGTGCTGGCCTTCGTGGCCCTGATCCCACCAACACTGCCCGGCACCAACATCGTGCTGGGCGCCCTGCCCGAGGACCGCCACATCGACCGCCTGGCCAAGCGCCAGCGCCCCGGCGAGCGCCTGGACCTGGCCATGCTGGCCGCCATCCGCCGCGTGTACGGCCTGCTGGCCAACACCGTGCGCTACCTGCAGTGCGGCGGCAGCTGGCGCGAGGACTGGGGCCAGCTGAGCGGCACCGCCGTGCCACCACAGGGCGCCGAGCCACAGAGCAACGCCGGACCACGACCACACATCGGCGACACCCTGTTCACCCTGTTCCGGGCACCAGAGCTGCTGGCACCAAACGGCGACCTGTACAACGTGTTCGCCTGGGCCCTGGACGTGCTGGCCAAGCGCCTGCGCTCCATGCACGTGTTCATCCTGGACTACGACCAGTCACCGGCCGGCTGCCGCGACGCCCTGCTGCAGCTGACCAGCGGCATGGTGCAGACCCACGTGACAACACCCGGCAGCATCCCAACAATCTGCGACCTGGCCCGCACCTTCGCCCGCGAGATGGGCGAGGCCAACTAATAGGGATCCCTCGAGAAGCTTGTCA
pro-drug GCV enzyme activity and selectivity for ability to kill cancer cells (cancer cells): exhibited pro-drug GCV enzyme activity and selectivity

B2: HSV-TK gene A168H and mutated at amino acids 159-161 from LIF to IFL: HSV-TK gene A168H also mutated at amino acids 159-161 from LIF to IFL (nucleic acid)
DNA: GTCAGCGGCCGCACCGGTACGCGTCCACCATGGCCAGCTACCCCGGCCACCAGCACGCCAGCGCCTTCGACCAGGCCGCCCGCAGCCGCGGCCACAGCAACGGCAGCACCGCACTGCGGCCACGGCGCCAGCAGGAGGCCACCGAGGTGCGCCCCGAGCAGAAGATGCCCACCCTGCTGCGCGTGTACATCGACGGACCACACGGCATGGGCAAGACCACCACCACCCAGCTGCTGGTGGCCCTGGGCAGCCGCGACGACATCGTGTACGTGCCCGAGCCCATGACCTACTGGCGCGTGCTGGGCGCCAGCGAGACCATCGCCAACATCTACACCACCCAGCACCGCCTGGACCAAGGCGAGATCAGCGCCGGCGACGCCGCCGTGGTGATGACCAGCGCCCAGATTACAATGGGCATGCCCTACGCCGTGACCGACGCCGTGCTGGCACCACACATCGGCGGCGAGGCCGGCAGCAGCCACGCACCACCACCAGCACTGACCATCTTCCTGGACCGGCACCCAATCGCACACCTGCTGTGCTACCCGGCAGCACGCTACCTGATGGGCTCCATGACACCACAAGCCGTGCTGGCCTTCGTGGCCCTGATCCCACCAACACTGCCCGGCACCAACATCGTGCTGGGCGCCCTGCCCGAGGACCGCCACATCGACCGCCTGGCCAAGCGCCAGCGCCCCGGCGAGCGCCTGGACCTGGCCATGCTGGCCGCCATCCGCCGCGTGTACGGCCTGCTGGCCAACACCGTGCGCTACCTGCAGTGCGGCGGCAGCTGGCGCGAGGACTGGGGCCAGCTGAGCGGCACCGCCGTGCCACCACAGGGCGCCGAGCCACAGAGCAACGCCGGACCACGACCACACATCGGCGACACCCTGTTCACCCTGTTCCGGGCACCAGAGCTGCTGGCACCAAACGGCGACCTGTACAACGTGTTCGCCTGGGCCCTGGACGTGCTGGCCAAGCGCCTGCGCTCCATGCACGTGTTCATCCTGGACTACGACCAGTCACCGGCCGGCTGCCGCGACGCCCTGCTGCAGCTGACCAGCGGCATGGTGCAGACCCACGTGACAACACCCGGCAGCATCCCAACAATCTGCGACCTGGCCCGCACCTTCGCCCGCGAGATGGGCGAGGCCAACTAATAGGGATCCCTCGAGAAGCTTGTCA
GCV mediated cancer kill activity (cancer cells; ganciclovir (GCV) pro-drug): exhibited GCV mediated cancer cell kill activity
